Legend:
[1] = test system: blackgrass; assay: Test Example 5: herbicidal effect by foliage application, plastic box (Table 20, symbol J); assay type: in vivo, blackgrass (Alopecurus myosuroides)
How it was run: (§1)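 Plants were sown into sterilized diluvial soil under about 1.5 cm cover and kept in a greenhouse at 25° C. to 30° C. Fourteen days on, foliage received an even spray of the diluted emulsion. Herbicidal or crop effect was judged three weeks afterwards.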

[2] = test system: barnyard grass; assay: Test Example 3: herbicidal effect by foliage application, Wagner pot (Table 18, symbol H); assay type: in vivo, barnyard grass (Echinochloa crus-galli)
How it was run: (§2)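 Plants were sown in alluvial soil held under 0.1–0.5 cm standing water and grown 14 days in a greenhouse at 25–30 °C. An emulsifiable formulation, water-diluted to the set dose, was then sprayed onto the foliage, and effects were scored three weeks later using previously defined criteria.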

[3] = test system: oval-leafed pondweed; assay: Test Example 2: herbicidal activity, application during weed generation under submerged conditions (Table 17, symbol C); assay type: in vivo, oval-leafed pondweed (Monochoria vaginalis); details: application during weed generation, submerged conditions
How it was run: (§3)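 Wagner pot, alluvial soil, 4 cm flood; mixed sowing of all species; greenhouse 25° C.–30° C. Emulsifiable formulation, water-diluted to predetermined dose, applied to paddy water at 1–2 leaf stage. Effect rated at 3 wk using the earlier test's scoring criteria.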

[4] = test system: green foxtail; assay: Test Example 4: herbicidal effect by soil treatment (Table 19, symbol G); assay type: in vivo, green foxtail (Setaria viridis); details: amount of applied herbicide 320 g/ha
How it was run: (§4)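 Pre-emergence style soil spray: seeds under ~1.5 cm sterilized diluvial soil received a uniform coat of emulsion diluted to the predetermined herbicide amount. Greenhouse 25–30° C; readout at week three on previously defined criteria.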

[5] = test system: late watergrass; assay: Test Example 2: herbicidal activity, application during weed generation under submerged conditions (Table 17, symbol A); assay type: in vivo, late watergrass (Echinochloa oryzicola); details: application during weed generation, submerged conditions
How it was run: as §3

[6] = test system: chickweed; assay: Test Example 5: herbicidal effect by foliage application, plastic box (Table 20, symbol P); assay type: in vivo, common chickweed (Stellaria media)
How it was run: as §1

[7] = test system: redroot pigweed; assay: Test Example 5: herbicidal effect by foliage application, plastic box (Table 20, symbol N); assay type: in vivo, redroot pigweed (Amaranthus retroflexus)
How it was run: as §1

[8] = test system: wild oat; assay: Test Example 5: herbicidal effect by foliage application, plastic box (Table 20, symbol I); assay type: in vivo, wild oat (Avena fatua)
How it was run: as §1

[9] = test system: windgrass; assay: Test Example 4: herbicidal effect by soil treatment (Table 19, symbol L); assay type: in vivo, windgrass (Apera spica-venti); details: amount of applied herbicide 320 g/ha
How it was run: as §4

[10] = test system: redroot pigweed; assay: Test Example 4: herbicidal effect by soil treatment (Table 19, symbol N); assay type: in vivo, redroot pigweed (Amaranthus retroflexus); details: amount of applied herbicide 320 g/ha
How it was run: as §4

[11] = test system: barnyard grass; assay: Test Example 5: herbicidal effect by foliage application, plastic box (Table 20, symbol H); assay type: in vivo, barnyard grass (Echinochloa crus-galli)
How it was run: as §1

[12] = test system: Italian ryegrass; assay: Test Example 4: herbicidal effect by soil treatment (Table 19, symbol K); assay type: in vivo, Italian ryegrass (Lolium multiflorum); details: amount of applied herbicide 320 g/ha
How it was run: as §4

[13] = test system: green foxtail; assay: Test Example 5: herbicidal effect by foliage application, plastic box (Table 20, symbol G); assay type: in vivo, green foxtail (Setaria viridis)
How it was run: as §1

[14] = test system: persian speedwell; assay: Test Example 5: herbicidal effect by foliage application, plastic box (Table 20, symbol R); assay type: in vivo, Persian speedwell (Veronica persica)
How it was run: as §1

[15] = test system: southern crabgrass; assay: Test Example 5: herbicidal effect by foliage application, plastic box (Table 20, symbol F); assay type: in vivo, southern crabgrass (Digitaria ciliaris)
How it was run: as §1

[16] = test system: southern crabgrass; assay: Test Example 4: herbicidal effect by soil treatment (Table 19, symbol F); assay type: in vivo, southern crabgrass (Digitaria ciliaris); details: amount of applied herbicide 320 g/ha
How it was run: as §4

[17] = test system: blackgrass; assay: Test Example 4: herbicidal effect by soil treatment (Table 19, symbol J); assay type: in vivo, blackgrass (Alopecurus myosuroides); details: amount of applied herbicide 320 g/ha
How it was run: as §4

[18] = test system: barnyard grass; assay: Test Example 4: herbicidal effect by soil treatment (Table 19, symbol H); assay type: in vivo, barnyard grass (Echinochloa crus-galli); details: amount of applied herbicide 320 g/ha
How it was run: as §4

[19] = test system: chickweed; assay: Test Example 4: herbicidal effect by soil treatment (Table 19, symbol P); assay type: in vivo, common chickweed (Stellaria media); details: amount of applied herbicide 320 g/ha
How it was run: as §4

[20] = test system: lambsquarters; assay: Test Example 4: herbicidal effect by soil treatment (Table 19, symbol O); assay type: in vivo, lambsquarters (Chenopodium album); details: amount of applied herbicide 320 g/ha
How it was run: as §4

[21] = test system: persian speedwell; assay: Test Example 4: herbicidal effect by soil treatment (Table 19, symbol R); assay type: in vivo, Persian speedwell (Veronica persica); details: amount of applied herbicide 320 g/ha
How it was run: as §4

[22] = test system: lambsquarters; assay: Test Example 5: herbicidal effect by foliage application, plastic box (Table 20, symbol O); assay type: in vivo, lambsquarters (Chenopodium album)
How it was run: as §1

[23] = test system: windgrass; assay: Test Example 5: herbicidal effect by foliage application, plastic box (Table 20, symbol L); assay type: in vivo, windgrass (Apera spica-venti)
How it was run: as §1

[24] = test system: Italian ryegrass; assay: Test Example 5: herbicidal effect by foliage application, plastic box (Table 20, symbol K); assay type: in vivo, Italian ryegrass (Lolium multiflorum)
How it was run: as §1

[25] = test system: Chinese sprangletop; assay: Test Example 3: herbicidal effect by foliage application, Wagner pot (Table 18, symbol D); assay type: in vivo, chinese sprangletop (Leptochloa chinensis)
How it was run: as §2

[26] = test system: Japanese bulrush; assay: Test Example 2: herbicidal activity, application during weed generation under submerged conditions (Table 17, symbol B); assay type: in vivo, Japanese bulrush (Schoenoplectus juncoides); details: application during weed generation, submerged conditions
How it was run: as §3

[27] = test system: velvetleaf; assay: Test Example 4: herbicidal effect by soil treatment (Table 19, symbol M); assay type: in vivo, velvetleaf (Abutilon theophrasti); details: amount of applied herbicide 320 g/ha
How it was run: as §4

[28] = test system: wild oat; assay: Test Example 4: herbicidal effect by soil treatment (Table 19, symbol I); assay type: in vivo, wild oat (Avena fatua); details: amount of applied herbicide 320 g/ha
How it was run: as §4

[29] = test system: rice flat sedge; assay: Test Example 3: herbicidal effect by foliage application, Wagner pot (Table 18, symbol E); assay type: in vivo, rice flat sedge (Cyperus iria)
How it was run: as §2

[30] = test system: velvetleaf; assay: Test Example 5: herbicidal effect by foliage application, plastic box (Table 20, symbol M); assay type: in vivo, velvetleaf (Abutilon theophrasti); details: foliage application, 285 g/ha, three weeks after application
How it was run: as §1

[31] = 320 g/ha, foliage application after 14-day growth, evaluated three weeks after application
[32] = foliage application, 285 g/ha, three weeks after application
[33] = amount of applied herbicide 285 g/ha

Structure (SMILES): CCCC(=O)Oc1c(C)nn(C)c(=O)c1-c1c(-c2ccccc2OC)sc2c(Cl)cccc12 [4-022]
- herbicidal effect on J: blackgrass (evaluation grade 0-5) [1, 31]: 0 (Herbicidal rate of 5% or less (almost no effect))
- herbicidal effect on barnyard grass (H) ([2]; 320 g/ha): 5 (Herbicidal rate of 90% or more (almost completely withered))
- herbicidal effect rating, C: oval-leafed pondweed ([3]; AAH 320 g/ha): 0 (Herbicidal rate of 5% or less (almost no effect))
- Herbicidal effect by soil treatment, G: green foxtail [4]: 3 (Herbicidal rate of 40% or more and less than 70%)
- herbicidal effect rating, A: late watergrass ([5]; AAH 320 g/ha): 0 (Herbicidal rate of 5% or less (almost no effect))
- herbicidal effect on P: chickweed (evaluation grade 0-5) [6, 31]: 5 (Herbicidal rate of 90% or more (almost completely withered))
- herbicidal effect on N: redroot pigweed (evaluation grade 0-5) [7, 31]: 3 (Herbicidal rate of 40% or more and less than 70%)
- herbicidal effect on I: wild oat (evaluation grade 0-5) [8, 31]: 0 (Herbicidal rate of 5% or less (almost no effect))
- Herbicidal effect by soil treatment, L: windgrass [9]: 0 (Herbicidal rate of 5% or less (almost no effect))
- Herbicidal effect by soil treatment, N: redroot pigweed [10]: 3 (Herbicidal rate of 40% or more and less than 70%)
- herbicidal effect on H: barnyard grass (evaluation grade 0-5) [11, 31]: 4 (Herbicidal rate of 70% or more and less than 90%)
- Herbicidal effect by soil treatment, K: Italian ryegrass [12]: 0 (Herbicidal rate of 5% or less (almost no effect))
- herbicidal effect on G: green foxtail (evaluation grade 0-5) [13, 31]: 2 (Herbicidal rate of 20% or more and less than 40%)
- herbicidal effect on R: persian speedwell (evaluation grade 0-5) [14, 31]: 3 (Herbicidal rate of 40% or more and less than 70%)
- herbicidal effect on F: southern crabgrass (evaluation grade 0-5) [15, 31]: 0 (Herbicidal rate of 5% or less (almost no effect))
- Herbicidal effect by soil treatment, F: southern crabgrass [16]: 3 (Herbicidal rate of 40% or more and less than 70%)
- Herbicidal effect by soil treatment, J: blackgrass [17]: 0 (Herbicidal rate of 5% or less (almost no effect))
- Herbicidal effect by soil treatment, H: barnyard grass [18]: 3 (Herbicidal rate of 40% or more and less than 70%)
- Herbicidal effect by soil treatment, P: chickweed [19]: 1 (Herbicidal rate of 5% or more and less than 20%)
- Herbicidal effect by soil treatment, O: lambsquarters [20]: 2 (Herbicidal rate of 20% or more and less than 40%)
- Herbicidal effect by soil treatment, R: persian speedwell [21]: 0 (Herbicidal rate of 5% or less (almost no effect))
- herbicidal effect on O: lambsquarters (evaluation grade 0-5) [22, 31]: 0 (Herbicidal rate of 5% or less (almost no effect))
- herbicidal effect on L: windgrass (evaluation grade 0-5) [23, 31]: 5 (Herbicidal rate of 90% or more (almost completely withered))
- herbicidal effect on K: Italian ryegrass (evaluation grade 0-5) [24, 31]: 1 (Herbicidal rate of 5% or more and less than 20%)
- herbicidal effect on Chinese sprangletop (D) ([25]; 320 g/ha): 5 (Herbicidal rate of 90% or more (almost completely withered))
- herbicidal effect rating, B: Japanese bulrush ([26]; AAH 320 g/ha): 2 (Herbicidal rate of 20% or more and less than 40%)
- Herbicidal effect by soil treatment, M: velvetleaf [27]: 0 (Herbicidal rate of 5% or less (almost no effect))
- Herbicidal effect by soil treatment, I: wild oat [28]: 0 (Herbicidal rate of 5% or less (almost no effect))
- herbicidal effect on rice flat sedge (E) ([29]; 320 g/ha): 4 (Herbicidal rate of 70% or more and less than 90%)

Structure (SMILES): CCOC(=O)OC(C)Oc1c(C)nn(C)c(=O)c1-c1c(-c2ccccc2OC)sc2cc(F)ccc12 (centres unmarked) [3-029]
- J: blackgrass, herbicidal effect grade [1, 32]: 4 (Herbicidal rate of 70% or more and less than 90%)
- herbicidal effect on H: barnyard grass [2, 33]: 5 (Herbicidal rate of 90% or more (almost completely withered))
- herbicidal effect rating, C: oval-leafed pondweed ([3]; AAH 285 g/ha): 1 (Herbicidal rate of 5% or more and less than 20%)
- herbicidal effect rating, A: late watergrass ([5]; AAH 285 g/ha): 0 (Herbicidal rate of 5% or less (almost no effect))
- P: chickweed, herbicidal effect grade [6, 32]: 4 (Herbicidal rate of 70% or more and less than 90%)
- M: velvetleaf, herbicidal effect grade [30]: 5 (Herbicidal rate of 90% or more (almost completely withered))
- N: redroot pigweed, herbicidal effect grade [7, 32]: 5 (Herbicidal rate of 90% or more (almost completely withered))
- I: wild oat, herbicidal effect grade [8, 32]: 1 (Herbicidal rate of 5% or more and less than 20%)
- H: barnyard grass, herbicidal effect grade [11, 32]: 4 (Herbicidal rate of 70% or more and less than 90%)
- G: green foxtail, herbicidal effect grade [13, 32]: 5 (Herbicidal rate of 90% or more (almost completely withered))
- R: persian speedwell, herbicidal effect grade [14, 32]: 0 (Herbicidal rate of 5% or less (almost no effect))
- F: southern crabgrass, herbicidal effect grade [15, 32]: 3 (Herbicidal rate of 40% or more and less than 70%)
- O: lambsquarters, herbicidal effect grade [22, 32]: 3 (Herbicidal rate of 40% or more and less than 70%)
- L: windgrass, herbicidal effect grade [23, 32]: 4 (Herbicidal rate of 70% or more and less than 90%)
- K: Italian ryegrass, herbicidal effect grade [24, 32]: 3 (Herbicidal rate of 40% or more and less than 70%)
- herbicidal effect on D: Chinese sprangletop [25, 33]: 3 (Herbicidal rate of 40% or more and less than 70%)
- herbicidal effect rating, B: Japanese bulrush ([26]; AAH 285 g/ha): 3 (Herbicidal rate of 40% or more and less than 70%)
- herbicidal effect on E: rice flat sedge [29, 33]: 5 (Herbicidal rate of 90% or more (almost completely withered))

Reference: US20230085307A1, “PYRIDAZINONE COMPOUND AND HERBICIDE” (NISSAN CHEMICAL CORPORATION, priority 2019, published 2023)
